Experimental data: patent US20230055705A1, “SUBSTITUTED THIOPHENE CARBOXAMIDES AND DERIVATIVES THEREOF” (Bayer Aktiengesellschaft, priority 2019, published 2023)

Legend:
[1] = test system: Pseudomonas syringae pv. tomato; assay: Pseudomonas syringae pv. tomato in vitro cell test; format: cell-based; conditions: 20 ppm of active ingredient, 24 h incubation, read-out: efficacy (inhibition of bacteria growth)
Protocol: Culture medium: LB broth medium (Luria Broth Miller) Sigma
Inoculum: bacteria suspension
Compounds were solubilized in DMSO and the solution used to prepare the required range of concentrations. The final concentration of DMSO used in the assay was 1%.
(§1) Inoculum was prepared from a pre-culture of bacteria grown in liquid medium and diluted to the desired optical density (OD).
(§2) Compounds were evaluated for their ability to inhibit bacteria growth in liquid culture assay. The compounds were added in the desired concentrations to culture medium containing the bacteria suspension. After 24 h of incubation, the efficacy of compounds was determined by spectrometric measurement of bacteria growth. Inhibition was determined by comparing the absorbance values in wells containing the compounds with the absorbance in control wells without active ingredients.

[2] = test system: Xanthomonas campestris pv. campestris; assay: In vivo preventive test on Xanthomonas campestris pv. campestris (black rot on cabbage); conditions: evaluated 8 or 10 days after inoculation, read-out: efficacy; for pest or weed control at 31 ppm: 31 ppm of active ingredient; for pest or weed control at 125 ppm: 125 ppm of active ingredient
Method in brief: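 Young cabbage plants sprayed with compound in acetone/DMSO/Tween diluted in water; solvent-only controls. Leaves sprayed with bacterial suspension 72 h later, then held 8 or 10 days at 27° C and 95% relative humidity. Efficacy scored 8 or 10 days post-inoculation, 0% matching controls, 100% meaning no disease.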

Alternaria alternata = Alternaria alternata in vitro cell test; format: cell-based; conditions: 120 h, 20 ppm of active ingredient, 5 days incubation, read-out: efficacy (inhibition of fungal growth)
Protocol: (§3) • Solvent: DMSO • Culture medium: 14.6 g anhydrous D-glucose (VWR), 7.1 g Mycological Peptone (Oxoid), 1.4 g granulated Yeast Extract (Merck), QSP 1 liter • Inoculum: spores suspension
(§4) Fungicides were solubilized in DMSO and the solution used to prepare the required range of concentrations. The final concentration of DMSO used in the assay was ≤[…]1%.
A spore suspension of A. alternata was prepared and diluted to the desired spore density.
(§5) Fungicides were evaluated for their ability to inhibit spore germination and mycelium growth in liquid culture assay. The compounds were added in the desired concentration to the culture medium with spores. After 5 days incubation, fungi-toxicity of compounds was determined by spectrometric measurement of mycelium growth. Inhibition of fungal growth was determined by comparing the absorbance values in wells containing the fungicides with the absorbance in control wells without fungicides.

Peronospora parasitica = assay: In vivo preventive test on Peronospora parasitica (Crucifer downy mildew); conditions: Hyaloperonospora parasitica, in Brassica oleracea, 120 h, cabbage, evaluated 5 days after inoculation, read-out: efficacy; for pest or weed control at 31 ppm: 31 ppm of active ingredient; for pest or weed control at 125 ppm: 125 ppm of active ingredient; for pest or weed control at 500 ppm: 500 ppm of active ingredient
Method in brief: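 Young cabbage plants were sprayed with compound in acetone/DMSO/Tween diluted with water, then inoculated 72 h later with a Peronospora parasitica spore suspension. Plants were kept 5 days at 20 °C and 100% RH. Efficacy was scored with 0% equal to solvent-treated controls and 100% meaning no disease.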

[3] = test system: Xanthomonas campestris pv. campestris; assay: Xanthomonas campestris pv. campestris in vitro cell test; format: cell-based; conditions: 20 ppm of active ingredient, 24 h incubation, read-out: efficacy (inhibition of bacteria growth)
Protocol: • Solvent: DMSO • Culture medium: LB broth medium (Luria Broth Miller) Sigma • Inoculum: bacteria suspension
Compounds were solubilized in DMSO and the solution used to prepare the required range of concentrations. The final concentration of DMSO used in the assay was ≤1%.
as §1, §2

[4] = LogP by HPLC on reversed phase columns (EEC directive 79/831 Annex V.A8); format: physicochemical
Method in brief: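 LogP derived from retention time by linear interpolation against a C3–C16 alkan-2-one calibration series of known LogP. Measured by HPLC on reversed-phase columns following EEC 79/831 Annex V.A8. UV spectra over 200–400 nm at signal peaks gave lambda-max.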

Uromyces appendiculatus = assay: In vivo preventive test on Uromyces appendiculatus (bean rust); conditions: 240 h, evaluated 10 days after inoculation, read-out: efficacy; for pest or weed control at 125 ppm: 125 ppm of active ingredient; for pest or weed control at 500 ppm: 500 ppm of active ingredient
Method in brief: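 Young bean plants sprayed with compound in acetone/DMSO/Tween diluted in water, inoculated 72 h later with U. appendiculatus spore suspension. Held 24 h at 20 °C, 100% RH, then 9 days at 20 °C, 70-80% RH. Efficacy scored 10 days post-inoculation versus solvent-treated controls (0% = control, 100% = no disease).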

[5] = test system: Colletotrichum lindemuthianum; assay: Colletotrichum lindemuthianum in vitro cell test; format: cell-based; conditions: 144 h, 20 ppm of active ingredient, 6 days incubation, read-out: efficacy (inhibition of fungal growth)
Protocol: as §3, §4
A spore suspension of C. lindemuthianum was prepared and diluted to the desired spore density.
as §5, with “inhibit spores” for “inhibit spore”, “After 6” for “After 5”

[6] = reversed phase HPLC columns, method [a]: LC-UV, in an acidic range, with 0.1% formic acid in water and acetonitrile as eluent (linear gradient from 10% to 95% acetonitrile)
[7] = reversed phase HPLC columns, method [a]: LC-UV, acidic range, 0.1% formic acid in water and acetonitrile as eluent (linear gradient 10% to 95% acetonitrile)

Row | Structure (SMILES) | inhibition at 20 ppm [1] | pest or weed control at 31 ppm [2] | inhibition at 20 ppm (Alternaria alternata) | pest or weed control at 31 ppm (Peronospora parasitica) | pest or weed control at 125 ppm (Peronospora parasitica) | pest or weed control at 500 ppm (Peronospora parasitica) | inhibition at 20 ppm [3] | chromatographic logP [4, 6] | pest or weed control at 125 ppm (Uromyces appendiculatus) | pest or weed control at 500 ppm (Uromyces appendiculatus) | inhibition at 20 ppm [5] | pest or weed control at 125 ppm [2] | chromatographic logP [4, 7] | chromatographic logP ([4]; method [a]: LC-UV, acidic range, 0.1% formic acid in water and acetonitrile as eluent (linear gradient 10% to 95% acetonitrile)) | chromatographic logP ([4]; reversed phase HPLC columns, given in the preparation examples, method not marked)
1 | C[C@H](NC(=S)c1sc(Cl)c(Cl)c1Cl)C(=O)O [I.113] | ≤ 30% | 80 to 89% | ≤ 30% | 80 to 89% | 90 to 100% | 90 to 100% | ≤ 30% | 3.5 | 90 to 100% | 90 to 100% | ≤ 30% | – | – | – | –
2 | COC(=O)C(CC(F)F)NC(=O)c1sc(Cl)c(Cl)c1Cl (stereo not shown) [I.016] | ≤ 30% | 90 to 100% | ≤ 30% | 90 to 100% | 90 to 100% | 90 to 100% | ≤ 30% | 3.55 | 90 to 100% | 90 to 100% | ≤ 30% | – | – | – | –
3 | CCOC(=O)C(CSC)NC(=O)c1sc(Cl)c(Cl)c1Cl (stereo not shown) [I.143] | ≤ 30% | 90 to 100% | ≤ 30% | 90 to 100% | 90 to 100% | – | ≤ 30% | – | 90 to 100% | – | ≤ 30% | 80 to 89% | 4.29 | – | –
4 | COC(=O)[C@H](CCCNC(=N)N)NC(=O)c1sc(Cl)c(Cl)c1Cl [I.008] | ≤ 30% | 80 to 89% | ≤ 30% | 90 to 100% | 90 to 100% | 90 to 100% | ≤ 30% | 1.73 | 70 to 79% | 90 to 100% | ≤ 30% | – | – | – | –
5 | COC(=O)[C@H](CSC(=O)N(C)C)NC(=O)c1sc(Cl)c(Cl)c1Cl [I.142] | ≤ 30% | 80 to 89% | ≤ 30% | 90 to 100% | 90 to 100% | – | ≤ 30% | – | 90 to 100% | – | – | 90 to 100% | – | 3.56 | –
6 | COC(=O)C[C@H](NC(=O)c1sc(Cl)c(Cl)c1Cl)C(=O)OC [I.144] | ≤ 30% | 80 to 89% | ≤ 30% | 90 to 100% | 90 to 100% | – | ≤ 30% | – | 90 to 100% | – | – | – | 3.28 | – | –
7 | O=C(O)CNC(=S)c1sc(Cl)c(Cl)c1Cl [I.022, N-[(3,4,5-trichloro-2-thienyl)carbonothioyl]glycine] | ≤ 30% | – | ≤ 30% | 90 to 100% | 90 to 100% | 90 to 100% | ≤ 30% | 3.17 | – | 90 to 100% | ≤ 30% | – | – | – | 3.17
